pKi: −log10 of the molar value.

Experimental findings from US8846719B2, “Isoxazolo-pyridine derivatives” (Roche Palo Alto LLC, priority 2007, dated 2014) are described below.

One assay deals with human GABA A receptor α5β3γ2 (Homo sapiens (Human), UniProt P18507+P31644). Briefly: [3H]flumazenil competition binding assay, human GABA A α5β3γ2 receptors expressed in HEK293 cells.
Settings: not given
As for the experimental part: The affinity of compounds at GABA A receptor subtypes was measured by competition for [3H]flumazenil (85 Ci/mmol; Roche) binding to HEK293 cells expressing rat (stably transfected) or human (transiently transfected) receptors of composition α1β3γ2, α2β3γ2, α3β3γ2 and α5β3γ2.
Cell pellets were suspended in Krebs-tris buffer (4.8 mM KCl, 1.2 mM CaCl2, 1.2 mM MgCl2, 120 mM NaCl, 15 mM Tris; pH 7.5; binding assay buffer), homogenized by polytron for ca. 20 sec on ice and centrifuged for 60 min at 4° C. (50000 g; Sorvall, rotor: SM24=20000 rpm). The cell pellets were resuspended in Krebs-tris buffer and homogenized by polytron for ca. 15 sec on ice. Protein was measured (Bradford method, Bio-Rad) and aliquots of 1 mL were prepared and stored at −80° C.
Assays were incubated to equilibrium for 1 hour at 4° C. and harvested onto GF/C uni-filters (Packard) by filtration using a Packard harvester and washing with ice-cold wash buffer (50 mM Tris; pH 7.5). After drying, filter-retained radioactivity was detected by liquid scintillation counting. Ki values were calculated using Excel-Fit (Microsoft) and are the means of two determinations.
Regarding `Cc1onc(-c2ccccc2)c1COc1ccc(C(=O)NC2CCN(C(C)C)CC2)cn1` [Example 36, N-(1-Isopropyl-piperidin-4-yl)-6-(5-methyl-3-phenyl-isoxazol-4-ylmethoxy)-nicotinamide], the pKi was 8.00.

Staying with this assay, now noted: human receptor; displacement of [3H]flumazenil (0.5 nM); means of two determinations; read-out: hKi GABAAa5.
On to `Cc1onc(-c2ccccc2)c1COc1ccc(C(=O)NCc2nc(C3CC3)no2)cn1` [Example 19, N-(3-Cyclopropyl-[1,2,4]oxadiazol-5-ylmethyl)-6-(5-methyl-3-phenyl-isoxazol-4-ylmethoxy)-nicotinamide], for which the pKi is 7.88. As to `Cc1onc(-c2ccccc2)c1COc1ccc(C(=O)NCc2cc(C3CC3)[nH]n2)cn1` [Example 20, N-(5-Cyclopropyl-1H-pyrazol-3-ylmethyl)-6-(5-methyl-3-phenyl-isoxazol-4-ylmethoxy)-nicotinamide], the pKi was 7.67. Still for that read-out and setting: next, `Cc1onc(-c2ccccc2)c1COc1ccc(C(=O)NCc2nc(C#N)cs2)cn1` [Example 21, N-(4-Cyano-thiazol-2-ylmethyl)-6-(5-methyl-3-phenyl-isoxazol-4-ylmethoxy)-nicotinamide]: 8.55; `Cc1onc(-c2ccccc2)c1COc1ccc(C(=O)NCc2ccccn2)cn1` [Example 22, 6-(5-Methyl-3-phenyl-isoxazol-4-ylmethoxy)-N-pyridin-2-ylmethyl-nicotinamide]: 8.34; `Cc1cc(CNC(=O)c2ccc(OCc3c(-c4ccccc4)noc3C)nc2)c(=O)[nH]n1` [Example 23, N-(6-Methyl-3-oxo-2,3-dihydro-pyridazin-4-ylmethyl)-6-(5-methyl-3-phenyl-isoxazol-4-ylmethoxy)-nicotinamide]: 8.19.

For `Cc1onc(-c2ccccc2)c1COc1ccc(C(=O)NCC(=O)OC(C)(C)C)cn1` [Example 24, {[6-(5-Methyl-3-phenyl-isoxazol-4-ylmethoxy)-pyridine-3-carbonyl]-amino}-acetic acid tert-butyl ester], the pKi was 7.46. As for `CCOC(=O)C(C)NC(=O)c1ccc(OCc2c(-c3ccccc3)noc2C)nc1` (stereo not shown) [Example 25, 2-{[6-(5-Methyl-3-phenyl-isoxazol-4-ylmethoxy)-pyridine-3-carbonyl]-amino}-propionic acid ethyl ester], the pKi was 7.69. Same read-out and setting: the value for `Cc1onc(-c2ccccc2)c1COc1ccc(C(=O)NC2CC2)cn1` [Example 27, N-Cyclopropyl-6-(5-methyl-3-phenyl-isoxazol-4-ylmethoxy)-nicotinamide] was 8.57; that for `Cc1onc(-c2ccccc2)c1COc1ccc(C(=O)NC2CCC2)cn1` [Example 28, N-Cyclobutyl-6-(5-methyl-3-phenyl-isoxazol-4-ylmethoxy)-nicotinamide] was 8.55; that for `Cc1onc(-c2ccccc2)c1COc1ccc(C(=O)NC2CCCC2)cn1` [Example 29, N-Cyclopentyl-6-(5-methyl-3-phenyl-isoxazol-4-ylmethoxy)-nicotinamide] was 8.41.

Regarding `Cc1onc(-c2ccccc2)c1COc1ccc(C(=O)NC2CCCCC2)cn1` [Example 30, N-Cyclohexyl-6-(5-methyl-3-phenyl-isoxazol-4-ylmethoxy)-nicotinamide], the pKi was 7.88.

Regarding `Cc1onc(-c2ccccc2)c1COc1ccc(C(=O)NC2CCOCC2)cn1` [Example 31, 6-(5-Methyl-3-phenyl-isoxazol-4-ylmethoxy)-N-(tetrahydro-pyran-4-yl)-nicotinamide], the pKi is 8.68. With `Cc1onc(-c2ccccc2)c1COc1ccc(C(=O)NC2CCS(=O)(=O)CC2)cn1` [Example 33, N-(1,1-Dioxo-hexahydro-1,6-thiopyran-4-yl)-6-(5-methyl-3-phenyl-isoxazol-4-ylmethoxy)-nicotinamide], the pKi was 8.31. On the same count and under the same terms, the value for `CCN1CCC(NC(=O)c2ccc(OCc3c(-c4ccccc4)noc3C)nc2)CC1` [Example 35, N-(1-Ethyl-piperidin-4-yl)-6-(5-methyl-3-phenyl-isoxazol-4-ylmethoxy)-nicotinamide] was 8.03; that for `Cc1onc(-c2ccccc2)c1COc1ccc(C(=O)NC2CCN(Cc3ccccc3)CC2)cn1` [Example 37, N-(1-Benzyl-piperidin-4-yl)-6-(5-methyl-3-phenyl-isoxazol-4-ylmethoxy)-nicotinamide] was 8.14. Regarding `Cc1onc(-c2ccccc2)c1COc1ccc(C(=O)NC2CCCN(C(=O)OC(C)(C)C)C2)cn1` (stereo not shown) [Example 38, 3-{[6-(5-Methyl-3-phenyl-isoxazol-4-ylmethoxy)-pyridine-3-carbonyl]-amino}-piperidine-1-carboxylic acid tert-butyl ester], the pKi is 7.36.

For `CCN1CCCC(NC(=O)c2ccc(OCc3c(-c4ccccc4)noc3C)nc2)C1` (stereo not shown) [Example 39, N-(1-Ethyl-piperidin-3-yl)-6-(5-methyl-3-phenyl-isoxazol-4-ylmethoxy)-nicotinamide], the pKi was 8.30.

Take `CCOC(=O)CN1CCCC(NC(=O)c2ccc(OCc3c(-c4ccccc4)noc3C)nc2)C1` (stereo not shown) [Example 40, (3-{[6-(5-Methyl-3-phenyl-isoxazol-4-ylmethoxy)-pyridine-3-carbonyl]-amino}-piperidin-1-yl)-acetic acid ethyl ester]: the pKi was 7.86.

Regarding `Cc1onc(-c2ccccc2)c1COc1ccc(C(=O)NC2CCCN(CC(=O)O)C2)cn1` (stereo not shown) [Example 41, (3-{[6-(5-Methyl-3-phenyl-isoxazol-4-ylmethoxy)-pyridine-3-carbonyl]-amino}-piperidin-1-yl)-acetic acid], the pKi was 8.03.

For the molecule `CCNC(=O)CN1CCCC(NC(=O)c2ccc(OCc3c(-c4ccccc4)noc3C)nc2)C1` (stereo not shown) [Example 42, N-(1-Ethylcarbamoylmethyl-piperidin-3-yl)-6-(5-methyl-3-phenyl-isoxazol-4-ylmethoxy)-nicotinamide], the pKi is 7.86. Same read-out and setting: the value for `Cc1onc(-c2ccccc2)c1COc1ccc(C(=O)NC2CCCN(CC(=O)NC3CC3)C2)cn1` (stereo not shown) [Example 43, N-(1-Cyclopropylcarbamoylmethyl-piperidin-3-yl)-6-(5-methyl-3-phenyl-isoxazol-4-ylmethoxy)-nicotinamide] was 7.91; that for `Cc1onc(-c2ccccc2)c1COc1ccc(C(=O)NC2CCCN(CC(=O)NCC(F)(F)F)C2)cn1` (stereo not shown) [Example 44, 6-(5-Methyl-3-phenyl-isoxazol-4-ylmethoxy)-N-{1-[(2,2,2-trifluoro-ethylcarbamoyl)-methyl]-piperidin-3-yl}-nicotinamide] was 8.00; that for `Cc1onc(-c2ccccc2)c1COc1ccc(C(=O)NC2CCCN(CC(=O)NCCO)C2)cn1` (stereo not shown) [Example 45, N-{1-[(2-Hydroxy-ethylcarbamoyl)-methyl]-piperidin-3-yl}-6-(5-methyl-3-phenyl-isoxazol-4-ylmethoxy)-nicotinamide] was 8.08. In the case of `Cc1onc(-c2ccccc2)c1COc1ccc(C(=O)NC2CCCN(CC(=O)NC3CCOCC3)C2)cn1` (stereo not shown) [Example 46, 6-(5-Methyl-3-phenyl-isoxazol-4-ylmethoxy)-N-{1-[(tetrahydro-pyran-4-ylcarbamoyl)-methyl]-piperidin-3-yl}-nicotinamide], the pKi is 7.88.

`Cc1onc(-c2ccccc2)c1COc1ccc(C(=O)NC(C)(C)C)cn1` [Example 47, N-tert-Butyl-6-(5-methyl-3-phenyl-isoxazol-4-ylmethoxy)-nicotinamide]: the pKi is 7.93. With `Cc1onc(-c2ccccc2)c1COc1ccc(C(=O)Nc2ccccc2)cn1` [Example 48, 6-(5-Methyl-3-phenyl-isoxazol-4-ylmethoxy)-N-phenyl-nicotinamide], the pKi is 7.42. On the same count and under the same terms, next, `Cc1onc(-c2ccccc2)c1COc1ccc(C(=O)Nc2ccc(F)cc2)cn1` [Example 49, N-(4-Fluoro-phenyl)-6-(5-methyl-3-phenyl-isoxazol-4-ylmethoxy)-nicotinamide]: 7.92.

On to `Cc1onc(-c2ccccc2)c1COc1ccc(C(=O)N(C)C2CCOCC2)cn1` [Example 50, N-Methyl-6-(5-methyl-3-phenyl-isoxazol-4-ylmethoxy)-N-(tetrahydro-pyran-4-yl)-nicotinamide], for which the pKi was 7.69. As for `Cc1onc(-c2ccccc2)c1COc1ccc(C(=O)N2CCCCC2)cn1` [Example 51, [6-(5-Methyl-3-phenyl-isoxazol-4-ylmethoxy)-pyridin-3-yl]-piperidin-1-yl-methanone], the pKi is 7.29.

Regarding `Cc1onc(-c2ccccc2)c1COc1ccc(C(=O)N2CCC(F)(F)CC2)cn1` [Example 52, (4,4-Difluoro-piperidin-1-yl)-[6-(5-methyl-3-phenyl-isoxazol-4-ylmethoxy)-pyridin-3-yl]-methanone], the pKi is 7.77.

On to `Cc1onc(-c2ccccc2)c1COc1ccc(C(=O)N2CCOCC2)cn1` [Example 53, [6-(5-Methyl-3-phenyl-isoxazol-4-ylmethoxy)-pyridin-3-yl]-morpholin-4-yl-methanone], for which the pKi was 7.63. Still for that read-out and setting: the value for `Cc1onc(-c2ccccc2)c1COc1ccc(C(=O)N2CCSCC2)cn1` [Example 54, [6-(5-Methyl-3-phenyl-isoxazol-4-ylmethoxy)-pyridin-3-yl]-thiomorpholin-4-yl-methanone] was 7.59; that for `Cc1onc(-c2ccccc2)c1COc1ccc(C(=O)N2CCS(=O)(=O)CC2)cn1` [Example 55, (1,1-Dioxo-1,6-thiomorpholin-4-yl)-[6-(5-methyl-3-phenyl-isoxazol-4-ylmethoxy)-pyridin-3-yl]-methanone] was 7.64.
